How the values were obtained:
Micrococcus luteus = assay: Kirby-Bauer agar disk diffusion; assay type: cell-based; conditions: 6-mm disks, 20 μg test compound
Outline: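 Agar disk diffusion used 6-mm air-dried disks carrying 20 μg of compound. Values are mean diameters (mm) of the growth-inhibition zone at 24 h, from triplicate experiments. S. epidermidis and S. simulans were clinical isolates.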

N. gonorrhoeae = assay: Kirby-Bauer agar disk diffusion; assay type: cell-based, Neisseria gonorrhoeae; conditions: Neisseria gonorrhoeae; Table 1; 6-mm disks, 20 μg test compound, 24 h, triplicate; β-lactamase positive; read-out: zone of growth inhibition, average diameter
Outline: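 β-lactamase-positive N. gonorrhoeae on agar plates with 6-mm disks loaded with 20 μg compound; zone diameter of growth inhibition (mm) read after 24 h, averaged over triplicate experiments.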

MRSA strains = assay: MIC by agar dilution; assay type: cell-based, Staphylococcus aureus; conditions: Staphylococcus aureus, MRSA, read-out: Minimum inhibitory concentration (MIC)
From the text: However, the N-alkylthio substituent is required, since reduction to the N—H analogue completely destroys the biological activity.

[1] = system: cultures of S. aureus and MRSA; assay: electron microscopy of cell morphology; assay type: cell-based, Staphylococcus aureus; conditions: Example 1; electron microscopy, high magnification
From the text: The structure-bioactivity patterns observed for these N-thiolated lactams are highly atypical for a β-lactam antibiotic. The compounds are lipohilic and devoid of the typical acidic ring functionality required for recognition by the penicillin binding proteins. The implication that the lactams set forth in FIGS. 1A-1I are not acting in the same manner or on the same enzymes as the traditional β-lactam drugs is supported by electron microscopy experiments, which confirm that cell morphology is unaffected by the lactam of FIG. 1D (Greenwood, D. et al. Science, 1969, 163:1076).
(§1) In fact, only small isolated colonies of surviving cells can be found, all of which appear perfectly normal in size, shape, smoothness, and clustering behavior. […] Pulse radiolabeling experiments indicate that the lactam of FIG. 1D blocks the bacterial uptake of ^3H-uridine and ^3H-leucine at low (MIC) levels (Lim, D. V. et al. Microbiology, 1977, 33:328; Champney, W. S. and C. G. Tober Antimicrob. Agents and Chemother., 2000, 44:1413).
Light microscopy and scanning electron microscopy experiments have enabled us to look for cell wall damage in cultures of S. aureus and MRSA grown in the presence of N-methylthio lactam (FIG. 11F) over a range of different concentrations and cell growth conditions. […] Those cells that survive the treatment appear normal (coccal) and fully mature.

MRSA cells = assay: light microscopy after Gram staining; assay type: cell-based, Staphylococcus aureus
From the text: as §1
(FIGS. 14A-14C) S. aureus is a Gram-positive microorganism, and thus reacts with Gram stain to produce a purple coloration due to binding of the stain to the peptidoglycan. 100% of MRSA cells grown either in the absence or presence of the lactam of FIG. 11F take on a purple color when Gram stained (top and center images, next page). In contrast, for MRSA cells treated with penicillin G or vancomycin (cell wall synthesis inhibitors), only about 30% of the cells are Gram-stained purple, with the remainder of the cells appearing pink (bottom image, next page) due to morphologically altered walls. This is strong evidence that the N-methylthio lactams are not affecting late stage events in cell wall biosynthesis.

CC1(C)S[C@@H]2[C@H](NC(=O)Cc3ccccc3)C(=O)N2[C@H]1C(=O)O [PenG, penicillin G, reference compound]
zone of inhibition at 20 µg/disc (Micrococcus luteus; Micrococcus luteus, Table 1, 24 h, triplicate, read-out: zone of growth inhibition, average diameter): 40 mm | zone of growth inhibition, average diameter (Micrococcus luteus; Table 3, 24 hours): 40 mm | zone of inhibition at 20 µg/disc (N. gonorrhoeae): 0 mm | MIC (MRSA strains): > 64 µg/mL | cell morphology [1]: wrinkled, deformed, or even sheared | coloration upon Gram staining (MRSA cells; Example 1): pink coloration | cells Gram-stained purple (MRSA cells; Example 5, MRSA cells grown in presence of the substance): about 30%
